The values that follow come from patent publication US8119666B2, “1,2,5-thiazolidine derivatives useful for treating conditions mediated by protein tyrosine phosphatases (PTPase)” (Novartis AG, priority 2005, dated 2012).

In this assay the target is T1, human PTP-1B (Homo sapiens, UniProt P18031).
T1 construct: recombinant human PTP-1B[1-298] or PTP-1B[1-322]
T1 sequence (P18031 1-298 limits assumed): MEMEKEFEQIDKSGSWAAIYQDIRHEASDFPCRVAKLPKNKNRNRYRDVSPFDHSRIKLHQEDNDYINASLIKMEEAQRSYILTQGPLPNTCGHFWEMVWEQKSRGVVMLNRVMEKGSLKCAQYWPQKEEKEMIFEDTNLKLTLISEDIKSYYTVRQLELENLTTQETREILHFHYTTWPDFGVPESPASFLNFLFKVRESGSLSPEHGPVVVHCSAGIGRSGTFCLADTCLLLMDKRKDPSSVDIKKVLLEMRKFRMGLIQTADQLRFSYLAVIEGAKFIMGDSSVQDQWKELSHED
The experiment in a line: PTP-1B inhibitory activity in vitro (IC50). It is filed as biochemical. Conditions: inhibitory activity to human PTP-1B; which of the described assay formats was used is not stated. How it is done: Assessment of human PTP-1B (hPTP-1B) activity in the presence of various agents is determined by measuring the amount of inorganic phosphate released from a phosphopeptide substrate using a 96-well microtiter plate format. The assay (100 μL) is performed in an assay buffer comprised of 50 mM TRIS (pH 7.5), 50 mM NaCl, 3 mM DTT at ambient temperature. The assay is typically performed in the presence of 0.4% dimethyl sulfoxide (DMSO). However, concentrations as high as 10% are used with certain poorly soluble compounds. […] Inorganic phosphate, a product of the enzyme reaction, is quantitiated after 15 min as the green color resulting from complexing with the Malichite reagent and is determined as an A620 using a Molecular Devices (Sunnyvale, Calif.) SpectraMAX Plus spectrophotometer. […] Activity is defined as the net change in absorbance resulting from the activity of the uninhibited hPTP-1B[1-411] minus that of a tube with acid-inactivated hPTP-1B[1-411].
Alternatively, the assessment of human PTP-1B activity in the presence of various agents may be determined by measuring the hydrolysis products of known competing substrates. For example, cleavage of substrate para-nitrophenylphosphate (pNPP) results in the release of the yellow-colored para-nitrophenol (pNP) which can be monitored in real time using a spectrophotometer. […]

Molecules are shown by their SMILES. pIC50: −log10 of the molar value.

Usually pIC50 stands for the IC50 on a negative log10 scale, so that one unit is a factor of ten. Low readings indicate a large IC50, high ones a small IC50. In the case of `CS(=O)(=O)Oc1c(Cl)cccc1Cc1ccc(N2CC(=O)NS2(=O)=O)c(O)c1` [Example No. 52-1, Methanesulfonic acid 2-chloro-6-[3-hydroxy-4-(1,1,4-trioxo-1,2,5-thiadiazolidin-2-yl)-benzyl]-phenyl ester], the pIC50 was 6.90.
Turning to `COc1ccc(Cc2ccc(N3CC(=O)NS3(=O)=O)c(O)c2)c(OS(C)(=O)=O)c1` [Example No. 52-3, Methanesulfonic acid 2-[3-hydroxy-4-(1,1,4-trioxo-1,2,5-thiadiazolidin-2-yl)-benzyl]-5-methoxyphenyl ester], the pIC50 is 6.88.
